Reference: BindingDB's records for doi:10.1007/s00213-002-1073-7 (WestfÄLische Wilhelms-Universit&Auml, 2002)

What was measured:
[1] = target: Beta-2 adrenergic receptor (Rattus norvegicus, UniProt P10608)
D(1B) dopamine receptor = D(1B) dopamine receptor (Homo sapiens, UniProt P21918)
[2] = target: T1, Muscarinic acetylcholine receptor M1 (Homo sapiens, UniProt P11229)
T1 sequence (P11229 whole entry): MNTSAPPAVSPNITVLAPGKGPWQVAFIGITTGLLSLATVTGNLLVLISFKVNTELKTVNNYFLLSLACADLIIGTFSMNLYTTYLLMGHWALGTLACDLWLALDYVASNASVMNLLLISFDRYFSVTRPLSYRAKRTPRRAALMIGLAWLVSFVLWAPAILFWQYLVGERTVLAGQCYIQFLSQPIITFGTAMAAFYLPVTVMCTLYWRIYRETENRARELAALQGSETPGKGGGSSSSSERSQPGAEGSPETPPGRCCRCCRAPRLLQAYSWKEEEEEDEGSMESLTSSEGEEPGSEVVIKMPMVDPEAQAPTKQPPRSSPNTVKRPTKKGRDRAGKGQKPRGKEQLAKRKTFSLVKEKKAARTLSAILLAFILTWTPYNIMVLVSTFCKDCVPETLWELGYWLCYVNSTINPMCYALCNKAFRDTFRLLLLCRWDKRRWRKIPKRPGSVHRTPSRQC

[3] = target: 5-hydroxytryptamine receptor 6 (Homo sapiens, UniProt P50406)
Vasopressin V1b receptor = target: T2, Vasopressin V1b receptor (Homo sapiens, UniProt P47901)
T2 sequence (P47901 whole entry): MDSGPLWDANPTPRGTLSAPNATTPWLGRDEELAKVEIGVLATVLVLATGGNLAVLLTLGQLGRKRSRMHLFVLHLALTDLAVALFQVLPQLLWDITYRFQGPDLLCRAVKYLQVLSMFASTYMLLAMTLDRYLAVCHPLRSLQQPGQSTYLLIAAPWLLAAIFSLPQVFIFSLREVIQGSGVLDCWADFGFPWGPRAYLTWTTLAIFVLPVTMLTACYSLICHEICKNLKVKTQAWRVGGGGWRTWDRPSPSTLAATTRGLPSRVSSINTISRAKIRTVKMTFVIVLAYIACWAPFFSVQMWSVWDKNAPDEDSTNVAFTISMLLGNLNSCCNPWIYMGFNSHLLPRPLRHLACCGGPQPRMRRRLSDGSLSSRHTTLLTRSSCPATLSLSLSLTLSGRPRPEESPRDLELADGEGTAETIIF

[4] = target: T3, 5-hydroxytryptamine receptor 1A (Homo sapiens, UniProt P08908)
T3 sequence (P08908 whole entry): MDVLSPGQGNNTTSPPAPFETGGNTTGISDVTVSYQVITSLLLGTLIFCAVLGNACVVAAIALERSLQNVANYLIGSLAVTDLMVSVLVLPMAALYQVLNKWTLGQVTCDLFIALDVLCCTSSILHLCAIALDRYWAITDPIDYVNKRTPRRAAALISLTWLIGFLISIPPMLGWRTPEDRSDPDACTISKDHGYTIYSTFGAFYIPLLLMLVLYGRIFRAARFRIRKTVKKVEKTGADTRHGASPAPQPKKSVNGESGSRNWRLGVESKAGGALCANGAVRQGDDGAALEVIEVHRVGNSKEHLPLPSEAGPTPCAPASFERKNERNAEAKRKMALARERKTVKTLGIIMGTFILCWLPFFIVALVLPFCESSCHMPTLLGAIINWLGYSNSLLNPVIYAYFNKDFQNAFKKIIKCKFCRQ

[5] = target: T4, Muscarinic acetylcholine receptor M2 (Homo sapiens, UniProt P08172)
T4 sequence (P08172 whole entry): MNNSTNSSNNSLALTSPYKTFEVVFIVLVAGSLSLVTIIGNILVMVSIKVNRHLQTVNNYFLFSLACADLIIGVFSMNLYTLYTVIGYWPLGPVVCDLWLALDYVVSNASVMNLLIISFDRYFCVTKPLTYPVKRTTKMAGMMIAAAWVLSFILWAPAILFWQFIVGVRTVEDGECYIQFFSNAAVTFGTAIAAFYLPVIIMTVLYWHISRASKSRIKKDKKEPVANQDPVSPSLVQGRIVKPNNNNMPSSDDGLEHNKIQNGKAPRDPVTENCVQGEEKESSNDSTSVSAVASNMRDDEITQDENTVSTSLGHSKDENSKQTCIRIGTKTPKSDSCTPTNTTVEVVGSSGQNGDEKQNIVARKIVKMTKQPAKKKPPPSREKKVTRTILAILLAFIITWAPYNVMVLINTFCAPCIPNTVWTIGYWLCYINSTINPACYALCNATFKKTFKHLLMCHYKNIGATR

Histamine H1 receptor = Histamine H1 receptor (Rattus norvegicus, UniProt P31390)
D(1A) dopamine receptor = D(1A) dopamine receptor (Homo sapiens, UniProt P21728)
[6] = target: 5-hydroxytryptamine receptor 1D (Homo sapiens, UniProt P28221)
[7] = target: T5, Alpha-2B adrenergic receptor (Homo sapiens, UniProt P18089)
T5 sequence (P18089 whole entry): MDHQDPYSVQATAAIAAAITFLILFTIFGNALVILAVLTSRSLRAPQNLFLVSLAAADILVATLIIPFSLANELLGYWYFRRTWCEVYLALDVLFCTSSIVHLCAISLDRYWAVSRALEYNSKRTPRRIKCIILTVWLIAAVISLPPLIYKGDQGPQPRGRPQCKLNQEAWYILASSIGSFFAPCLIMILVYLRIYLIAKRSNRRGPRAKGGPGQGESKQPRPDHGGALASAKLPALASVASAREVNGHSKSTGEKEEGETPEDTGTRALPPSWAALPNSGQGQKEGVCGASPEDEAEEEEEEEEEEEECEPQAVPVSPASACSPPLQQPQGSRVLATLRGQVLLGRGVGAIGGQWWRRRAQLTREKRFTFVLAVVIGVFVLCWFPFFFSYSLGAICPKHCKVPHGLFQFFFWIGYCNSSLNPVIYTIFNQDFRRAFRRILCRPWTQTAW

[8] = target: 5-hydroxytryptamine receptor 5A (Homo sapiens, UniProt P47898)
Sequence of 5-hydroxytryptamine receptor 5A (P47898 whole entry): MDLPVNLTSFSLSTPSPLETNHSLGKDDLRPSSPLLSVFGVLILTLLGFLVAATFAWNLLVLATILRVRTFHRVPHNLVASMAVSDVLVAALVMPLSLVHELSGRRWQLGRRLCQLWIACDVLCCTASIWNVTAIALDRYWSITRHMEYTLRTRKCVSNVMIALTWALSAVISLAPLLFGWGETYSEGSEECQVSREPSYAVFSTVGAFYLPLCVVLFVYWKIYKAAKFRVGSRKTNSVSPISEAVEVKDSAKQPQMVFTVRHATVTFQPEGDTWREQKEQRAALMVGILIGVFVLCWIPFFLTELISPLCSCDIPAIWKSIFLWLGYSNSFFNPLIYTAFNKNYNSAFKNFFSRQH

Sequence of Beta-2 adrenergic receptor (P10608 whole entry): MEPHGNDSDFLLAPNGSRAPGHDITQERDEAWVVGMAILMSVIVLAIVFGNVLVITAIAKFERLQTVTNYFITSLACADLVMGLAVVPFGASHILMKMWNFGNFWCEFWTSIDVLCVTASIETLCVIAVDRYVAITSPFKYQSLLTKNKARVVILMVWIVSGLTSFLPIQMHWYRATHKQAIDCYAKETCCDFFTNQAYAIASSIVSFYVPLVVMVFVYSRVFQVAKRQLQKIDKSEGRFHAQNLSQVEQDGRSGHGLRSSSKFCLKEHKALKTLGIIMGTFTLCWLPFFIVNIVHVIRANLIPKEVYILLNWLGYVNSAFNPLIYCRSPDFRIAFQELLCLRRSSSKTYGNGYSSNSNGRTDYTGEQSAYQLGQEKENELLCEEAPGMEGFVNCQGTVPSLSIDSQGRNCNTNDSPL
Sequence of Histamine H1 receptor (P31390 whole entry): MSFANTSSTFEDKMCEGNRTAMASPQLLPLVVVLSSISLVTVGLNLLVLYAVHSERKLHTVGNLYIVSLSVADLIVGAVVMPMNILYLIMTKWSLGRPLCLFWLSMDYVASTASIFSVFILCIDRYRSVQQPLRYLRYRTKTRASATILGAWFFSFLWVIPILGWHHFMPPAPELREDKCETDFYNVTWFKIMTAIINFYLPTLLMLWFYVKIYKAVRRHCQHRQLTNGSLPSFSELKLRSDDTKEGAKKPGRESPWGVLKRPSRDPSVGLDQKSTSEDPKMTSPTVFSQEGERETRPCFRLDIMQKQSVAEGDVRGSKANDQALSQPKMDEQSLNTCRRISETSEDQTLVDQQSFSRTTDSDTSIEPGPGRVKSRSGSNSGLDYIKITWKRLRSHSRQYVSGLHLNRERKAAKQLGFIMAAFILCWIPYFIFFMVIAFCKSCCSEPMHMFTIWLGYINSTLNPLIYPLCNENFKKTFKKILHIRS
Sequence of D(1B) dopamine receptor (P21918 whole entry): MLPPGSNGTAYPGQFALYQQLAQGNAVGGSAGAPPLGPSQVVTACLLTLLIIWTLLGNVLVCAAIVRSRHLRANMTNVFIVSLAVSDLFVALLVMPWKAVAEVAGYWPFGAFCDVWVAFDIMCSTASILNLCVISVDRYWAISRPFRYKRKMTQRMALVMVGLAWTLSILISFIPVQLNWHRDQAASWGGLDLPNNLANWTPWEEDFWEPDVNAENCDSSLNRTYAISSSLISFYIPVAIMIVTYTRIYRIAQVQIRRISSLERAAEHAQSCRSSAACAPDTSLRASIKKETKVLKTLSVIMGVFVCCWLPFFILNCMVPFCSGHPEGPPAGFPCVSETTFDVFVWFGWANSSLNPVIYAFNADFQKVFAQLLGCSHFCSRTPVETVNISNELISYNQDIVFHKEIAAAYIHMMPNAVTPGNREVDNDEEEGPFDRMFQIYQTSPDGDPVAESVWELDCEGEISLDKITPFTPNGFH
Sequence of 5-hydroxytryptamine receptor 1D (P28221 whole entry): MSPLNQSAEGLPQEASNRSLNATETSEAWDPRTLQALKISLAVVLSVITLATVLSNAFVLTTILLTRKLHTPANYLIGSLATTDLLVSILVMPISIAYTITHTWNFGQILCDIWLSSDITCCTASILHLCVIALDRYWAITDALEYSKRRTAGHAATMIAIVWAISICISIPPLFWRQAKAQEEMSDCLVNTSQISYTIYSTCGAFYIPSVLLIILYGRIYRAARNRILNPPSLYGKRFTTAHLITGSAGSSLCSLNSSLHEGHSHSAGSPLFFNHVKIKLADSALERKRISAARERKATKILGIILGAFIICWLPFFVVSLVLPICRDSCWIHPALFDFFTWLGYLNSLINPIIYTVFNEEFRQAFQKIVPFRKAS
Sequence of 5-hydroxytryptamine receptor 6 (P50406 whole entry): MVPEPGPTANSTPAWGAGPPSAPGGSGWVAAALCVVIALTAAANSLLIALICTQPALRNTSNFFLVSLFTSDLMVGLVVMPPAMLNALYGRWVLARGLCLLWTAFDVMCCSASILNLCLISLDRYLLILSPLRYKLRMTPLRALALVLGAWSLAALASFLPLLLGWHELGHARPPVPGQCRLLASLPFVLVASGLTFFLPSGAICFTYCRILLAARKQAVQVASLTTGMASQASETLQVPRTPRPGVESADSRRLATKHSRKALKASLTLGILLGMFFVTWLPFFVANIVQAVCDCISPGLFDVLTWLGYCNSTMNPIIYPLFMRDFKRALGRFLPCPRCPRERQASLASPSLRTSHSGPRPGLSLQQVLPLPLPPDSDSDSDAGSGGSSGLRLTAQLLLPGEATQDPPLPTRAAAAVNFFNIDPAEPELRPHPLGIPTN
Sequence of D(1A) dopamine receptor (P21728 whole entry): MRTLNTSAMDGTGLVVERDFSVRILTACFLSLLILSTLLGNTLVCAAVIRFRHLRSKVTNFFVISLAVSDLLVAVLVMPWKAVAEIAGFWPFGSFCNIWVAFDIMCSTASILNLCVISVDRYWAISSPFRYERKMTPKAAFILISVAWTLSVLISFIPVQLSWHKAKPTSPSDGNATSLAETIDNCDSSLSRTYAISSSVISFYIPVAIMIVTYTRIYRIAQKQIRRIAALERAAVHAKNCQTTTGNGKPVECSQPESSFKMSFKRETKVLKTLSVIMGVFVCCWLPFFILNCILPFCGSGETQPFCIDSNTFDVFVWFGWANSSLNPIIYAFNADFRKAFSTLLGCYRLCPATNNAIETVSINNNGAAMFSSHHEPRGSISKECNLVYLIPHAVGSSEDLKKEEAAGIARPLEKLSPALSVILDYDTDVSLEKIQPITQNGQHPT

SMILES	Ki [1]	Ki (D(1B) dopamine receptor)	Ki [2]	Ki [3]	Ki (Vasopressin V1b receptor)	Ki [4]	Ki [5]	Ki (Histamine H1 receptor)	Ki (D(1A) dopamine receptor)	Ki [6]	Ki [7]	Ki [8]
O=c1cc(O)cc2oc(-c3ccc(O)c(O)c3)c(OC3OC(CO)C(O)C(O)C3O)c(O)c1-2 (configuration not stated) [NSC_5318390]	> 10 µM	> 10 µM	> 10 µM	> 10 µM	> 10 µM	> 10 µM	> 10 µM	> 10 µM	> 10 µM	> 10 µM	> 10 µM	> 10 µM
CC(C)=CCC[C@]1(C)[C@@H](CC=C(C)C)C[C@]2(CC=C(C)C)C(=O)C(CC=C(C)C)C(=O)[C@]1(C(=O)C(C)C)C2=O (some centres not stated)	> 10 µM	> 10 µM	> 10 µM	> 10 µM	> 10 µM	> 10 µM	> 10 µM	> 10 µM	0.596 µM	> 10 µM	> 10 µM	> 10 µM
C[C@@H]1O[C@@H](Oc2c(-c3ccc(O)c(O)c3)oc3cc(O)cc(=O)c-3c2O)[C@H](O)[C@H](O)[C@H]1O	> 10 µM	> 10 µM	> 10 µM	> 10 µM	> 10 µM	> 10 µM	> 10 µM	> 10 µM	> 10 µM	> 10 µM	> 10 µM	> 10 µM
O=c1c(O)c(-c2ccc(O)c(O)c2)oc2cc(O)cc(O)c12 [2-(3,4-dihydroxyphenyl)-3,5,7-trihydroxy-chromone;hydrate]	> 10 µM	> 10 µM	> 10 µM	> 10 µM	> 10 µM	> 10 µM	> 10 µM	> 10 µM	> 10 µM	> 10 µM	> 10 µM	> 10 µM
C[C@@H]1O[C@@H](OC[C@H]2O[C@@H](Oc3c(-c4ccc(O)c(O)c4)oc4cc(O)cc(O)c4c3=O)[C@H](O)[C@@H](O)[C@@H]2O)[C@H](O)[C@H](O)[C@H]1O [3-Rhamnoglucosylquercetin]	> 10 µM	> 10 µM	> 10 µM	> 10 µM	> 10 µM	> 10 µM	> 10 µM	> 10 µM	> 10 µM	> 10 µM	> 10 µM	> 10 µM
O=c1cc(O)cc2oc(-c3ccc(O)c(-c4c(O)cc(O)c5c(=O)cc(-c6ccc(O)cc6)oc45)c3)cc(O)c1-2	> 10 µM	> 10 µM	> 10 µM	> 10 µM	> 10 µM	> 10 µM	> 10 µM	> 10 µM	> 10 µM	> 10 µM	> 10 µM	> 10 µM
